Assay results reported in patent US9216181B2 (Southwest Research Institute, priority 2011, dated 2015).

What was measured:
BMP-7 = assay: Study II real time PCR, BMP-7 up-regulation in mesenchymal stem cells; assay type: cell-based, human; settings: hMSC
Description: (§1) The testing procedure follows.
(§2) Cells based assays are done using 6 wells tissue culture plates, seeded with human mesenchymal stem cells (MSC) from Lonza, culture at 80% density. After seeding cells are treated with selected compounds at 10 μM, 5 μM and 2.5 μM for a 24 hour period, mRNA is collected using Qiagen kit RNAeasy kit and cDNA is prepared with same Qiagen kit, RT-PCR is done using kit from SABiosciences to measure gene expression for BMP2, 4 and 7 and run in Applied Biosystems Step One Plus. The protocol for mRNA isolation is described below.
(§3) Human mesenchymal stem cell growth medium passage 3 plated in a 6 well plate at 2.5×10^5 cells/well in hMSC Basal Medium+BulletKit (50 ml Growth Supplement, 10 ml L-Glutamine and 0.5 ml Gentamicin Sulfate Amphotericin-B) for 24 hrs. The compounds to be tested were added and after 24 hrs the media was aspirated, rinsed well once with PBS, and aspirated again. 350 ul of Lysis Buffer was added and the cells were stored at −20° C.
(§4) The lysate was homogenized by pipetting the lysate directly into a QIA shredder spin column placed in a 2-mL collection tube, and centrifuge for 2 min at full speed. 70% ethanol was added (1 vol. or […]) to the homogenized lysate (now at the bottom of the collection tube), and mixed well by pipetting. Up to 700 μL of the sample was transferred, including any precipitate that may have formed, to an RNeasy spin column placed in a 2-mL collection tube. This was centrifuged for 15 seconds at full speed. 700 μL of Buffer RW1 was added to the RNeasy spin column. This was centrifuged for 15 seconds at full speed to wash the spin column membrane.
(§5) 500 μL of Buffer RPE was added to the RNeasy spin column and centrifuged for 15 seconds at full speed. The flow through was discarded. 500 μL of Buffer RPE was added to the RNeasy spin column and centrifuged for 2 minutes at full speed to wash the spin column membrane. The RNeasy spin column was removed from the collection tube and the flow-through was discarded.
(§6) The RNeasy spin column was placed in a new 2-mL collection tube and centrifuged for 1 minute at full speed. The RNeasy spin column was removed from the collection tube, and the flow-through was discarded. The RNeasy spin column was placed in a new 1.5-mL collection tube. 30-50 μL of RNase-free water was added directly to the spin column membrane and this was centrifuged for 1 minute at full speed to elute the RNA.

BMP-4 = assay: Study II real time PCR, BMP-4 up-regulation in mesenchymal stem cells; assay type: cell-based, human; settings: hMSC, 24 hour, 2.5, 5 and 10 μM tested
Description: as §1, §2, §3, §4, §5
The RNeasy spin column was placed in a new 2-mL collection tube and centrifuged for 1 minute at full speed. […]

BMP-2 [1] = assay: Study II real time PCR, BMP-2 up-regulation in mesenchymal stem cells; assay type: cell-based, human; settings: hMSC; for BMP-2 Fold Increase/Dose / BMP-2 fold increases (in words): 24 hour
Description: as §1, §2, §3, §4, §5, §6

[2] = system: human mesenchymal stem cells (MSC); assay type: cell-based; parameters: key: *: Dose caused cell death; settings: 10 uM, hMSC, 24 hrs
murine calvaria bone = assay: Anabolic assay using murine calvaria, histology (Study II); assay type: cell-based, mouse; settings: calvaria of 4 day old pups, 5-20 μM, day 4 and day 7, 10× microscopy
Description: To investigate the biological effects on bone of the compounds from the PCR assays a number of assays were performed using murine calvaria bone as follows. Following procedures similar to those outlined above in Study I, murine calvaria bone was removed from 4 day old pups form CD-1 time pregnant mice from Harlan (15 day gestation at time of arrival). The pups were decapitated with scissors after dipping the pups in 95% ethanol. The scalp was then removed. The heads were placed in a Petri dish with BGJ medium. The calvaria bones were cut using curved scissors to make a cut along the suture of the calvaria bone and the two parts were carefully removed from the brain. The calvaria were trimmed avoiding the suture area. The collected tissue was placed into media (3 bones per group) including BGJ+L-Glutamine with 1% Pen/Strep and 1% BSA. The dish including the bones was placed into a 37° C. and 5% CO2 incubator.
The selected compounds were prepared in a solution of dimethyl sulfoxide (DMSO) to form stock solutions of each compound, with the exception of terfenadine, which was prepared in ethanol. Specifically, a 10 mM stock solution was prepared for PS1, a 25 mM stock solution was prepared for carebastine and a 50 mM stock solution was prepared for ebastine, #6 terfenadine, fexofenadine and astemizole. […]

BMP-2 [3] = assay: Real time PCR of BMP-2 gene expression in human MSC (Cells-to-Ct); assay type: cell-based; settings: BMP-2 mRNA, hMSC, 5-10 μM, 24 hours, vs untreated; BIOMOL library (Table 2)
Description: Early passage human mesenchymal stem cells (MSC) were thawed from one frozen cryo-vial and seeded into two T-75 tissue culture flasks and incubated at 37° C. for 48 hours in Alpha MEM with 10% FBS. After three days and one re-feeding, the cells were trypsinized and re-suspended in pre-warmed media at 5×10^4 cells/mL to provide 5,000 cells per well in a 96 well plate and incubated overnight at 37° C. in 5% CO2.
Each well was washed in cold PBS, lysed at room temperature for five minutes, and stop reagent added to each well to stop the lysis reaction. The final lysate was kept cold at 4° C. and used immediately as the RNA template for the reverse transcription cDNA synthesis following the TAQMAN GENE EXPRESSION CELLS TO CT KIT instructions.
The cDNA synthesis was prepared on a separate sterile 96-well PCR plate and performed on the Step One Plus Real Time PCR System instrument (Applied Biosystems) with the programming set at 37° C. for 60 minutes and an inactivation hold of 95° C. for five minutes. The final cDNA reaction was kept cold and used as the template for the TAQMAN GENE Real-Time PCR step following the recommended instructions for TAQMAN GENE EXPRESSION CELLS TO CT KIT assay. […] Template cDNA's were added separately to respective individual wells in replicate samples.
The PCR was performed on the STEPONEPLUS Real-Time System instrument (Applied Biosystems). The amplification program consisted of 1 cycle of 95° C. with 10 minute hold (hot start) and followed by 50 cycles of 95° C. with 15-second annealing hold and 1-minute 60° C. specified acquisition hold.

BMP2 = assay: Quantitative PCR (TaqMan, ΔΔCt) of BMP2 in human mesenchymal stem cells; assay type: cell-based; settings: Homo sapiens, Mesenchymal stem cells; BMP2 mRNA, hMSC, 10 μM, vs untreated, 18S reference; BIOMOL library (Table 2); read-out: q-PCR Fold increase
Description: Human mesenchymal stem cells (LONZA, Catalog PT2501) were maintained in Mesenchymal stem cells basal media (MSCBM CAT#PT-3238). Early passage cells were plated in triplicate at 2×10^4 cells/cm^2 using six well tissue culture plates and grown in humidified 5% CO2 at 37° C. for 24 hours. Spent media was replaced by assay media of drugs to be tested in same media as above at 10 μM final concentration. Untreated cells were used as the control group. Total RNA were prepared using either TRI Reagent (Ambion, Cat. 9738), for subsequent TaqMan gene expression qPCR of BMP2. RNA concentration and integrity was assessed by absorbance 260/280 and electrophoresis in 1% Agarose with formaldehyde loading dye. For TaqMan gene expression, cDNA was synthesized from 2 μg of total RNA using the High Capacity cDNA Reverse Transcription Kit (Applied Biosystems, Cat. 4368814). The resulting cDNA were diluted 1:100 for TaqMan and amplified by real-time quantitative PCR. Gene-specific fluorescent labeled TaqMan primers for FAM-BMP2 (Applied Biosystems, Hs00154192.m1) and TaqMan reference VIC-18S ribosomal RNA (Applied Biosystems, 4310893E) were used to target gene of interest. A cocktail of universal master mix (Applied Biosystems, 4369016) were prepared individually for both set of primers which contained Taq Polymerase, dNTPs, and buffer. Template cDNA's were added separately to respective individual wells in triplicate samples. The PCR were performed on StepOne Plus Real Time System instrument (Applied Biosystems). The amplification program consisted of 1 cycle of 95° C. with 10 minute hold (hot start) followed by 50 cycles of 95° C. with 15 second annealing hold and 1 minute 60° C. specified acquisition hold. The Ct value of endogenous reference gene (i.e. 18 s) was used to control for input RNA and then used to normalize target gene (i.e. BMP2) tested from the same cDNA sample to calculate the Δ Ct, and then calibrated to an internal reference sample. Change in gene expression was determined by the expression ΔΔCt relative method.
18 compounds were confirmed positive by the more stringent qPCR techniques. […] Included in the tables is the target or common medical use for each compounds.

| SMILES | BMP-7 Fold Increase/Dose (BMP-7; 10 μM, 24 hour) | BMP-7 fold increases (in words) (BMP-7; 24 hour) | BMP-4 Fold Increase/Dose (BMP-4) | BMP-2 Fold Increase/Dose (BMP-2 [1]; 10 μM) | BMP-2 fold increases (in words) (BMP-2 [1]) | cell death [2] | BMP-7 Fold Increase/Dose (BMP-7; 24 hour, 2.5, 5 and 10 μM tested, no dose stated) | fold change (PCR) (BMP-2 [1]; 24 hour, 2.5, 5 and 10 μM) [fold] | activity in bone calvaria assay / effect on BMP-2 gene expression, qualitative histology (murine calvaria bone) | RT PCR Fold increase (BMP-2 [3]) [fold] | BMP-7 Fold Increase/Dose (BMP-7; 2.5 μM, 24 hour) | BMP-2 Fold Increase/Dose (BMP-2 [1]; 5 μM) [fold] | fold induction at 10 µM (BMP2) |
| --- | --- | --- | --- | --- | --- | --- | --- | --- | --- | --- | --- | --- | --- |
| CC(C)(C)c1ccc(C(=O)CCCN2CCC(OC(c3ccccc3)c3ccccc3)CC2)cc1 [Ebastine] | ~3/10 fold | exhibit BMP-7 fold increases | None | ~8/10 μM fold | exhibit BMP-2 fold increases | *Ebastine |  |  |  |  |  |  |  |
| CN(C)CCC(c1ccccc1)c1ccccn1 (centres unmarked) [Pheniramine] |  |  | None | ~2/10 μM fold | exhibit BMP-2 fold increases |  | None |  |  |  |  |  |  |
| CC(C)(C(=O)O)c1ccc(C(=O)CCCN2CCC(OC(c3ccccc3)c3ccccc3)CC2)cc1 [Carebastine] |  |  |  |  |  |  |  | ≤ 1 | relatively active |  |  |  |  |
| COc1ccc(CCN2CCC(Nc3nc4ccccc4n3Cc3ccc(F)cc3)CC2)cc1 [Astemizole] |  | exhibit BMP-7 fold increases | None | ~7 fold | exhibit BMP-2 fold increases |  |  |  |  | 156.2 | ~8/2.5 fold | ~30 | 1 |
